Literature values in patent publication US20230380420A1, “HARD SURFACE DISINFECTING COMPOSITION” (priority 2020, published 2023).

details: alcohols; room temperature

| SMILES | ~δp [MPa^1/2] |
| --- | --- |
| CCCCO [1-butanol] | ~5.7 |
| CCCCCCCCCCO [1-decanol] | ~10.0 |
| CCCCCO [1-pentanol] | ~4.5 |
| CCCO [1-propanol] | ~6.8 |
| OCC(Cl)CCl (stereo not drawn) [2,3-dichloropropanol] | ~9.2 |
| OC1C=CCC1 (stereo not drawn) [2-cyclopentenyl alcohol] | ~7.6 |
| CCCCCCCCC(C)O (stereo not drawn) [2-decanol] | ~10.0 |
| CCC(CC)CO [2-ethyl-1-butanol] | ~4.3 |
| CCCCC(CC)CO (stereo not drawn) [2-ethyl-hexanol] | ~3.3 |
| CCCC(C)O (stereo not drawn) [2-pentanol] | ~6.4 |
| CC(C)O [2-propanol] | ~6.1 |
| C=CCO [2-propenol] | ~10.8 |
| OCc1ccc(Cl)cc1 [4-chlorobenzyl alcohol] | ~7.5 |
| OC1CCCCC1 [cyclohexanol] | ~4.1 |
| CCO [ethanol] | ~8.8 |
| CO [methanol] | ~12.3 |
| CC(C)(C)O [t-butyl alcohol] | ~5.1 |

The remaining lines, values ahead:

| ~δp [MPa^1/2] | SMILES |
| --- | --- |
| ~7.3 | CC(C)CCCCCO [isooctyl alcohol] |
| ~3.3 | CCCCCCCCO [octanol] |
| ~2.6 | CCCCCCCC/C=C\CCCCCCCCO [oleyl alcohol] |

same assay, conditions: glycol ethers; room temperature

| SMILES | ~δp [MPa^1/2] |
| --- | --- |
| CCCCOCCOCCO [diethylene glycol mono-n-butyl ether] | ~7.0 |
| CCOCCOCCO [diethylene glycol monoethyl ether] | ~9.2 |
| COCCOCCO [diethylene glycol monomethyl ether] | ~7.8 |
| CCOCCO [ethylene glycol monoethyl ether] | ~9.2 |
| COCCO [ethylene glycol monomethyl ether] | ~9.2 |
| OCCOc1ccccc1 [ethylene glycol monophenyl ether] | ~5.7 |

Now from value to compound:

| ~δp [MPa^1/2] | SMILES |
| --- | --- |
| ~5.9 | OCCOCc1ccccc1 [ethylene glycol monobenzyl ether] |
| ~5.1 | CCCCOCCO [ethylene glycol monobutyl ether] |
| ~8.2 | CC(C)OCCO [ethylene glycol monoisopropyl ether] |
| ~8.2 | CCCOCCO [ethylene glycol monopropyl ether] |
| ~4.5 | CCCCOCC(C)O (stereo not drawn) [propylene glycol monobutyl ether] |
| ~6.5 | CCOCC(C)O (stereo not drawn) [propylene glycol monoethyl ether] |
| ~4.7 | CC(C)COCC(C)O (stereo not drawn) [propylene glycol monoisobutyl ether] |
| ~6.1 | CC(O)COC(C)C (stereo not drawn) [propylene glycol monoisopropyl ether] |
| ~6.3 | COCC(C)O (stereo not drawn) [propylene glycol monomethyl ether] |
| ~5.6 | CCCOCC(C)O (stereo not drawn) [propylene glycol monopropyl ether] |
| ~7.6 | COCCOCCOCCO [triethylene glycol monomethyl ether] |
| ~3.1 | CCCCCCCC/C=C\CCCCCCCCOCCOCCOCCO [triethylene glycol monooleyl ether] |

same assay, conditions: room temperature

| SMILES | δp |
| --- | --- |
| O [water] | ≈ 16.0 MPa^1/2 |
